Measurements: patent publication EP0934252B1, “AMIDE DERIVATIVES AND THEIR USE AS PESTICIDES” (BAYER AG, priority 1996, dated 1998)

What was measured:
[1] = logP (physical data of the preparation examples); format: physicochemical
Phytophthora infestans = format: in vivo; details: Tomate, protektiv; for Wirkungsgrad in %: Aufwandmenge an Wirkstoff 50 g/ha, evaluated 3 days after inoculation, 0 % = as control, 100 % = no infestation; for Wirkungsgrad: Wirkstoffaufwandmenge 50 g/ha, summary sentence in the text for both compounds

| Compound | logP [1] | Wirkungsgrad in % (Phytophthora infestans) [%] | Wirkungsgrad (Phytophthora infestans) |
| --- | --- | --- | --- |
| COc1ccc(CCNC(=O)C(=O)c2ccc3c(c2)CCCC3)cc1OC [Beispiel 1, N-[2-(3,4-Dimethoxyphenyl)-ethyl]-2-oxo-2-(5,6,7,8-tetrahydronaphthalin-2-yl)-acetamid] | 3.24 | 95 | 90 -95% |
| COc1ccc(CCNC(=O)C(O)c2ccc3c(c2)CCCC3)cc1OC (stereo not shown) [Beispiel 2, N-[2-(3,4-Dimethoxyphenyl)-ethyl]-2-hydroxy-2-(5,6,7,8-tetrahydronaphthalin-2-yl)-acetamid] | 2.43 |  |  |
| COc1ccc(CCNC(=O)C(=O)c2ccc3c(c2)CCC3)cc1OC [Beispiel 3] | 2.92 | 90 | 90 -95% |
| COc1ccc(CCNC(=O)C(=O)c2ccc3c(c2)CCCCC3)cc1OC [Beispiel 4] | 3.57 |  |  |
| COc1ccc(CCNC(=O)C(O)c2ccc3c(c2)CCC3)cc1OC (stereo not shown) [Beispiel 5] | 2.19 |  |  |
| COc1ccc(CCNC(=O)C(O)c2ccc3c(c2)CCCCC3)cc1OC (stereo not shown) [Beispiel 6] | 2.7 |  |  |
